Experimental findings from patent US11034650B2, “Compounds useful for treating a Mannheimia haemolytica or Histophilus somni infection” (Intervet Inc., priority 2016, dated 2021) are described below.

≈ marks a conversion by molar mass, not a printed value. Bounds are passed on as bounds.

In one assay the test system is Mannheimia haemolytica MH 6357 (M7/2, reference strain, cattle infection strain). Description: MIC, broth-microdilution (CLSI VET01-A4), strain MH 6357. Format: cell-based. The note with it: Mannheimia haemolytica strain MH 6357, broth-microdilution; unit assumed. The essentials: (§1)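 Growth inhibition is scored visually on a doubling dilution series. The reported MIC corresponds to the lowest concentration free of turbidity, with results assessed under CLSI VET01-S3.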
Consider `O=C(N[C@@H](CO)C(=O)NO)c1ccc(C#Cc2ccc(CN3CCCOCC3)cc2)cc1` [Compound 215], for which the MIC MH 6357 is 3.1 µg/mL (≈ 7.09 µM).

As for `CON=C(C)[C@H](NC(=O)c1ccc(C#Cc2ccc(CN3CCCC3)cc2)cc1)C(=O)NO` [Compound 384], the MIC MH 6357 was found to be 6.3 µg/mL (≈ 14 µM).

Consider `CC(C)([C@H](NC(=O)c1ccc(C#Cc2ccc(CNCc3ccnc(Cl)c3)cc2)cc1)C(=O)NO)S(C)(=O)=O` [Compound 268], for which the MIC MH 6357 is 0.4 µg/mL (≈ 0.703 µM).

For the compound `O=C(N[C@@H](CO)C(=O)NO)c1ccc(C#Cc2ccc(CNCc3nccs3)cc2)cc1` [Compound 213], the MIC MH 6357 stood at 1.6 µg/mL (≈ 3.55 µM).

The subject of another assay is Mannheimia haemolytica MH 6374 (ATCC 33396, reference strain). Briefly: MIC, broth-microdilution (CLSI VET01-A4), strain MH 6374. The class given is cell-based. The note with it: Mannheimia haemolytica strain MH 6374, broth-microdilution; unit assumed. The method, boiled down:
as §1
(Dilution methods test growth across graded concentrations, often in twofold steps.)
`O=C(N[C@@H](CO)C(=O)NO)c1ccc(C#Cc2ccc(CN3CCCOCC3)cc2)cc1` [Compound 215] showed an MIC MH 6374 of 3.1 µg/mL (≈ 7.09 µM).

On to `CON=C(C)[C@H](NC(=O)c1ccc(C#Cc2ccc(CN3CCCC3)cc2)cc1)C(=O)NO` [Compound 384], for which the MIC MH 6374 amounted to 12.5 µg/mL (≈ 27.9 µM).

`CC(C)([C@H](NC(=O)c1ccc(C#Cc2ccc(CNCc3ccnc(Cl)c3)cc2)cc1)C(=O)NO)S(C)(=O)=O` [Compound 268] gave an MIC MH 6374 of 0.4 µg/mL (≈ 0.703 µM).

`O=C(N[C@@H](CO)C(=O)NO)c1ccc(C#Cc2ccc(CNCc3nccs3)cc2)cc1` [Compound 213] registered an MIC MH 6374 of 1.6 µg/mL (≈ 3.55 µM).

The test system of the next assay is Mannheimia haemolytica MH 10720 (154, BRD field isolate). Briefly: MIC, broth-microdilution (CLSI VET01-A4), strain MH 10720. To be noted: Mannheimia haemolytica strain MH 10720, broth-microdilution; unit assumed. The class given is cell-based. The essentials: as §1
For `O=C(N[C@@H](CO)C(=O)NO)c1ccc(C#Cc2ccc(CN3CCCOCC3)cc2)cc1` [Compound 215], the MIC MH 10720 amounted to 0.8 µg/mL (≈ 1.83 µM).

`CON=C(C)[C@H](NC(=O)c1ccc(C#Cc2ccc(CN3CCCC3)cc2)cc1)C(=O)NO` [Compound 384] gave an MIC MH 10720 of 3.1 µg/mL (≈ 6.91 µM).

Compound `CC(C)([C@H](NC(=O)c1ccc(C#Cc2ccc(CNCc3ccnc(Cl)c3)cc2)cc1)C(=O)NO)S(C)(=O)=O` [Compound 268] returned an MIC MH 10720 of no more than 0.1 µg/mL.

`O=C(N[C@@H](CO)C(=O)NO)c1ccc(C#Cc2ccc(CNCc3nccs3)cc2)cc1` [Compound 213] displayed an MIC MH 10720 of 0.8 µg/mL (≈ 1.78 µM).

The next assay has as its system Mannheimia haemolytica MH 12587 (1071, BRD field isolate, macrolide-resistance: erm+, E+). Description: MIC, broth-microdilution (CLSI VET01-A4), strain MH 12587. The class given is cell-based. To be noted: Mannheimia haemolytica strain MH 12587, broth-microdilution; unit assumed. The method, boiled down: as §1
`O=C(N[C@@H](CO)C(=O)NO)c1ccc(C#Cc2ccc(CN3CCCOCC3)cc2)cc1` [Compound 215] gave an MIC MH 12587 of 6.3 µg/mL (≈ 14.4 µM).

On to `CON=C(C)[C@H](NC(=O)c1ccc(C#Cc2ccc(CN3CCCC3)cc2)cc1)C(=O)NO` [Compound 384], for which the MIC MH 12587 amounted to 1.6 µg/mL (≈ 3.57 µM).

Turning to `CC(C)([C@H](NC(=O)c1ccc(C#Cc2ccc(CNCc3ccnc(Cl)c3)cc2)cc1)C(=O)NO)S(C)(=O)=O` [Compound 268], the MIC MH 12587 was 0.8 µg/mL (≈ 1.41 µM).

`O=C(N[C@@H](CO)C(=O)NO)c1ccc(C#Cc2ccc(CNCc3nccs3)cc2)cc1` [Compound 213] yielded an MIC MH 12587 of 3.1 µg/mL (≈ 6.88 µM).

The next assay has as its system Mannheimia haemolytica MH 13065 (XB0446-6003.9, BRD field isolate). Briefly: MIC, broth-microdilution (CLSI VET01-A4), strain MH 13065. Format: cell-based. The note with it: Mannheimia haemolytica strain MH 13065, broth-microdilution; unit assumed. The essentials:
as §1
Turning to `O=C(N[C@@H](CO)C(=O)NO)c1ccc(C#Cc2ccc(CN3CCCOCC3)cc2)cc1` [Compound 215], the MIC MH 13065 was 3.1 µg/mL (≈ 7.09 µM).

`CON=C(C)[C@H](NC(=O)c1ccc(C#Cc2ccc(CN3CCCC3)cc2)cc1)C(=O)NO` [Compound 384] registered an MIC MH 13065 of 6.3 µg/mL (≈ 14 µM).

`CC(C)([C@H](NC(=O)c1ccc(C#Cc2ccc(CNCc3ccnc(Cl)c3)cc2)cc1)C(=O)NO)S(C)(=O)=O` [Compound 268] displayed an MIC MH 13065 of 0.2 µg/mL (≈ 0.351 µM).

`O=C(N[C@@H](CO)C(=O)NO)c1ccc(C#Cc2ccc(CNCc3nccs3)cc2)cc1` [Compound 213] registered an MIC MH 13065 of 1.6 µg/mL (≈ 3.55 µM).

The subject of a further assay is Mannheimia haemolytica MH 13093 (XB0472-6014.1, BRD field isolate). Description: MIC, broth-microdilution (CLSI VET01-A4), strain MH 13093. The class given is cell-based. To be noted: Mannheimia haemolytica strain MH 13093, broth-microdilution; unit assumed. The method, boiled down:
as §1
`O=C(N[C@@H](CO)C(=O)NO)c1ccc(C#Cc2ccc(CN3CCCOCC3)cc2)cc1` [Compound 215] showed an MIC MH 13093 of 6.3 µg/mL (≈ 14.4 µM).

Turning to `CON=C(C)[C@H](NC(=O)c1ccc(C#Cc2ccc(CN3CCCC3)cc2)cc1)C(=O)NO` [Compound 384], the MIC MH 13093 came to 6.3 µg/mL (≈ 14 µM).

`CC(C)([C@H](NC(=O)c1ccc(C#Cc2ccc(CNCc3ccnc(Cl)c3)cc2)cc1)C(=O)NO)S(C)(=O)=O` [Compound 268] had an MIC MH 13093 of 0.4 µg/mL (≈ 0.703 µM).

On to `O=C(N[C@@H](CO)C(=O)NO)c1ccc(C#Cc2ccc(CNCc3nccs3)cc2)cc1` [Compound 213], for which the MIC MH 13093 is 3.1 µg/mL (≈ 6.88 µM).

The next assay concerns Pasteurella multocida PM 6267 (P 2225 (L386), reference strain, mouse infection strain). Description: MIC, broth-microdilution (CLSI VET01-A4), strain PM 6267. The class given is cell-based. To be noted: Pasteurella multocida strain PM 6267, broth-microdilution; unit assumed. The method, boiled down: as §1
`O=C(N[C@@H](CO)C(=O)NO)c1ccc(C#Cc2ccc(CN3CCCOCC3)cc2)cc1` [Compound 215]: the MIC PM 6267 is no more than 0.1 µg/mL.

As for `CON=C(C)[C@H](NC(=O)c1ccc(C#Cc2ccc(CN3CCCC3)cc2)cc1)C(=O)NO` [Compound 384], the MIC PM 6267 was 12.5 µg/mL (≈ 27.9 µM).

`CC(C)([C@H](NC(=O)c1ccc(C#Cc2ccc(CNCc3ccnc(Cl)c3)cc2)cc1)C(=O)NO)S(C)(=O)=O` [Compound 268] gave an MIC PM 6267 of no more than 0.1 µg/mL.

`O=C(N[C@@H](CO)C(=O)NO)c1ccc(C#Cc2ccc(CNCc3nccs3)cc2)cc1` [Compound 213] gave an MIC PM 6267 of no more than 0.1 µg/mL.

The subject of the next assay is Pasteurella multocida PM 6391 (ATCC 43137, reference strain). Briefly: MIC, broth-microdilution (CLSI VET01-A4), strain PM 6391. Format: cell-based. The note with it: Pasteurella multocida strain PM 6391, broth-microdilution; unit assumed. The essentials:
as §1
`O=C(N[C@@H](CO)C(=O)NO)c1ccc(C#Cc2ccc(CN3CCCOCC3)cc2)cc1` [Compound 215]: the MIC PM 6391 was no more than 0.1 µg/mL.

For `CON=C(C)[C@H](NC(=O)c1ccc(C#Cc2ccc(CN3CCCC3)cc2)cc1)C(=O)NO` [Compound 384], the MIC PM 6391 was 0.4 µg/mL (≈ 0.892 µM).

`CC(C)([C@H](NC(=O)c1ccc(C#Cc2ccc(CNCc3ccnc(Cl)c3)cc2)cc1)C(=O)NO)S(C)(=O)=O` [Compound 268]: the MIC PM 6391 was no more than 0.1 µg/mL.

`O=C(N[C@@H](CO)C(=O)NO)c1ccc(C#Cc2ccc(CNCc3nccs3)cc2)cc1` [Compound 213] registered an MIC PM 6391 of 0.4 µg/mL (≈ 0.888 µM).

Another assay concerns Pasteurella multocida PM 10775 (080130003051, BRD field isolate). Description: MIC, broth-microdilution (CLSI VET01-A4), strain PM 10775. The class given is cell-based. The note with it: Pasteurella multocida strain PM 10775, broth-microdilution; unit assumed. The method, boiled down: as §1
In the case of `O=C(N[C@@H](CO)C(=O)NO)c1ccc(C#Cc2ccc(CN3CCCOCC3)cc2)cc1` [Compound 215], the MIC PM 10775 was no more than 0.1 µg/mL.

In turn, `CON=C(C)[C@H](NC(=O)c1ccc(C#Cc2ccc(CN3CCCC3)cc2)cc1)C(=O)NO` [Compound 384] yielded an MIC PM 10775 of 3.1 µg/mL (≈ 6.91 µM).

`CC(C)([C@H](NC(=O)c1ccc(C#Cc2ccc(CNCc3ccnc(Cl)c3)cc2)cc1)C(=O)NO)S(C)(=O)=O` [Compound 268]: the MIC PM 10775 is no more than 0.1 µg/mL.

As to `O=C(N[C@@H](CO)C(=O)NO)c1ccc(C#Cc2ccc(CNCc3nccs3)cc2)cc1` [Compound 213], the MIC PM 10775 is no more than 0.1 µg/mL.

A further assay has as its system Pasteurella multocida PM 12080 (IV102277-0093, BRD field isolate). Briefly: MIC, broth-microdilution (CLSI VET01-A4), strain PM 12080. Format: cell-based. The note with it: Pasteurella multocida strain PM 12080, broth-microdilution; unit assumed. The essentials: as §1
Take `O=C(N[C@@H](CO)C(=O)NO)c1ccc(C#Cc2ccc(CN3CCCOCC3)cc2)cc1` [Compound 215]: the MIC PM 12080 is no more than 0.1 µg/mL.

Consider `CON=C(C)[C@H](NC(=O)c1ccc(C#Cc2ccc(CN3CCCC3)cc2)cc1)C(=O)NO` [Compound 384], for which the MIC PM 12080 was found to be 1.6 µg/mL (≈ 3.57 µM).

`CC(C)([C@H](NC(=O)c1ccc(C#Cc2ccc(CNCc3ccnc(Cl)c3)cc2)cc1)C(=O)NO)S(C)(=O)=O` [Compound 268] showed an MIC PM 12080 of no more than 0.1 µg/mL.

Compound `O=C(N[C@@H](CO)C(=O)NO)c1ccc(C#Cc2ccc(CNCc3nccs3)cc2)cc1` [Compound 213] had an MIC PM 12080 of 0.2 µg/mL (≈ 0.444 µM).
